The source made the active and inactive calls. The rule behind the calls is not given here.
Columns and labels:
[1] = Inhibition of Hh signaling pathway in mouse TM3 cells assessed as downregulation of Gli1 gene expression after 48 hrs by luciferase reporter gene assay; format: cell-based; conditions: TM3, 48 h
[2] = Cytotoxicity against mouse TM3 cells assessed as cell viability after 48 hrs by Cell Titer Glo assay; format: cell-based; conditions: read-out: LD50
[3] = target: Protein smoothened (Homo sapiens) (UniProt Q99835); test: Displacement of BODIPY-cyc from SMO receptor (unknown origin) transfected in HEK293T cells at 200 nM after 16 hrs by laser-scanning confocal microscopic analysis; format: cell-based; conditions: HEK-293T
Chain of Protein smoothened (Homo sapiens) (Q99835 whole entry): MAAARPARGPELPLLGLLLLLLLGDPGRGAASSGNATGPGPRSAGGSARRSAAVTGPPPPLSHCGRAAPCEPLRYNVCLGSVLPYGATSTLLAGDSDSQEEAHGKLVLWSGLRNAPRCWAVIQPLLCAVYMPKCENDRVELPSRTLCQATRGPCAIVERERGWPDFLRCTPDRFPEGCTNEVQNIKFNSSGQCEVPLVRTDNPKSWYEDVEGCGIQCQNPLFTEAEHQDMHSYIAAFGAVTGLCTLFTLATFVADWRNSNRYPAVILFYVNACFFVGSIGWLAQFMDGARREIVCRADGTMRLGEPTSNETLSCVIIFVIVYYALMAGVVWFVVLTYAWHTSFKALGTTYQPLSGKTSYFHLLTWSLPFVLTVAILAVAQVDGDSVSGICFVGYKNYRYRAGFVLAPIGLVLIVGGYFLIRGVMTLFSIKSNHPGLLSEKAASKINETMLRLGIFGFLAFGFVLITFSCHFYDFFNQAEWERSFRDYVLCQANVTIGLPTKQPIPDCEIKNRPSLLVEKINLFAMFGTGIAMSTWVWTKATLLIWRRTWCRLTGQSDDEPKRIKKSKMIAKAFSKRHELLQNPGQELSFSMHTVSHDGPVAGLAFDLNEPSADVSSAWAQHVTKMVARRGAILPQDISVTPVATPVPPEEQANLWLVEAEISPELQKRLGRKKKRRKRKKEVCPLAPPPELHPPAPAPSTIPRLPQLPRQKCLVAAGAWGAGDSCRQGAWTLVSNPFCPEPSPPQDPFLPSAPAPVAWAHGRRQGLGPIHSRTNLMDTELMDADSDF

[4] = Inhibition of Hh signaling pathway in Sufu deficient MEF cells assessed as downregulation of Gli1 mRNA expression at 10 uM after 24 hrs by qRT-PCR analysis; format: cell-based; conditions: Mus musculus
[5] = Inhibition of Hh signaling pathway in Sufu deficient MEF cells assessed as downregulation of Ptch1 mRNA expression at 10 uM after 24 hrs by qRT-PCR analysis; format: cell-based; conditions: Mus musculus
[6] = Inhibition of luciferase (unknown origin) expressed in BMP-responsive element stable reporter cells; format: cell-based
[7] = target: Protein smoothened (Homo sapiens) (UniProt Q99835); test: Displacement of BODIPY-cyc from SMO receptor (unknown origin) transfected in HEK293T cells at 1 uM after 16 hrs by laser-scanning confocal microscopic analysis; format: cell-based; conditions: HEK-293T
[8] = target: Protein smoothened (Homo sapiens) (UniProt Q99835); test: Displacement of BODIPY-cyc from SMO receptor (unknown origin) transfected in HEK293T cells at 10 uM after 16 hrs by laser-scanning confocal microscopic analysis; format: cell-based; conditions: HEK-293T
[9] = target: 3',5'-cyclic-AMP phosphodiesterase 4D (Homo sapiens, UniProt Q08499); test: Inhibition of PDE4D (unknown origin) preincubated for 5 mins followed by cAMP addition measured after 15 mins by PDE-Glo phosphodiesterase assay
Chain of 3',5'-cyclic-AMP phosphodiesterase 4D (Q08499 whole entry): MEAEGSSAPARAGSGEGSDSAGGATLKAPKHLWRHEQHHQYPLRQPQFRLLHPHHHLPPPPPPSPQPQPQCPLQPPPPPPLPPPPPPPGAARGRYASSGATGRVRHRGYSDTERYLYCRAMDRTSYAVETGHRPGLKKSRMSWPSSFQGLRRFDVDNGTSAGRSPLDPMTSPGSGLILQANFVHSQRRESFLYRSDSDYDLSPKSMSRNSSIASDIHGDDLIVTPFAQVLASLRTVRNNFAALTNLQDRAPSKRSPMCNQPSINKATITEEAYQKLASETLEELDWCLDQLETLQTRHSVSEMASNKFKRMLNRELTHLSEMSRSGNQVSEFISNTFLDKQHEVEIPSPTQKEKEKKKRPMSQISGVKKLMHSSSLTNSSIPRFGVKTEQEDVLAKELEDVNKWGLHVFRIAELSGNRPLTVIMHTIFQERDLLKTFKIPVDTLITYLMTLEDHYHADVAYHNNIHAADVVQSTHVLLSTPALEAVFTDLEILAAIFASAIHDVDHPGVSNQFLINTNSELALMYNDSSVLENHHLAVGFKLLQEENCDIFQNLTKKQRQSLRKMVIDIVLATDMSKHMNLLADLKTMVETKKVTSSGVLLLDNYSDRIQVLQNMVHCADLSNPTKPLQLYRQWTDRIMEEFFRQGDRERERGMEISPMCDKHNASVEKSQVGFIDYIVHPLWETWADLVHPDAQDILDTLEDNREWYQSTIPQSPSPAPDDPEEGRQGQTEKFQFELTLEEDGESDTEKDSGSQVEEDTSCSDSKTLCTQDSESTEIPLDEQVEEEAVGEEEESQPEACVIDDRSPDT

[10] = Inhibition of Hh signaling pathway in Shh-LIGHT2 incorporated mouse NIH 3T3 cells assessed as downregulation of Gli1 gene expression by luciferase reporter gene assay; format: cell-based; conditions: NIH3T3
[11] = Inhibition of Hh signaling pathway in Sufu deficient MEF cells assessed as downregulation of Gli1 mRNA expression at 0.1 uM after 24 hrs by qRT-PCR analysis; format: cell-based; conditions: Mus musculus
[12] = Inhibition of Hh signaling pathway in Sufu deficient MEF cells assessed as downregulation of Ptch1 mRNA expression at 0.1 uM after 24 hrs by qRT-PCR analysis; format: cell-based; conditions: Mus musculus

Row | SMILES | EC50 ([1]; read-out: EC50) [µM] | CC50 at 48 h [2] [µM] | inhibition [4] [%] | inhibition [5] [%] | also measured
1 | CC(O)(CSc1nc2sccc2c(=O)n1C1CC1)c1ccccc1 (configuration not stated) | 0.948 | > 50 |  |  | 
2 | CC1=C2C[C@H]3[C@@H](CC=C4CC(=O)CC[C@@]43C)[C@@H]2CCC12OC1C[C@H](C)CN(CCNC(=O)CCCCCNC(=O)CCc3ccccc3)C1[C@H]2C (single isomer, unassigned) |  |  |  |  | inhibition [3]: Active
3 | O=C(CSc1nc2sccc2c(=O)n1C1CC1)c1ccccc1 | 0.082 | > 50 | 13.6 | -0.3 | inhibition [6]: inactive; inhibition [7]: inactive
4 | C=C(C)Cn1c(SCC(=O)c2ccncc2)nc2sc3c(c2c1=O)CCCC3 | 19.8 | > 50 |  |  | 
5 | O=C(CSc1nc2sccc2c(=O)n1C1CC1)c1cccs1 | 0.933 | > 50 | 5.5 | -3.3 | inhibition [8]: inactive; inhibition [6]: inactive
6 | C=C(C)Cn1c(SCC(=O)c2nccs2)nc2sc3c(c2c1=O)CCCC3 | > 20 | > 50 |  |  | 
7 | O=C(CSc1nc2ccccc2c(=O)n1C1CC1)c1ccccc1 | 1.16 | > 50 |  |  | 
8 | O=C(CSc1nc2sc3c(c2c(=O)n1CC1CC1)CCCC3)c1cccs1 | 2.07 | > 50 |  |  | 
9 | C=C(C)Cn1c(SCC(=O)c2cccnc2)nc2sc3c(c2c1=O)CCCC3 | 11.1 | 35.4 |  |  | 
10 | C=C(C)Cn1c(SCC(=O)c2ccccc2)nc2sc3c(c2c1=O)CCCC3 | 5.7 | > 50 | 64.8 | 60.4 | IC50 [9]: 0.965 µM
11 | CS(=O)(=O)c1ccc(C(=O)Nc2ccc(Cl)c(-c3ccccn3)c2)c(Cl)c1 [VISMODEGIB] | 0.013 | > 50 |  |  | 
12 | C=C(C)Cn1c(SCC(=O)c2cccs2)nc2sccc2c1=O | 0.931 | > 50 |  |  | 
13 | O=C(CSc1nc2ccccc2c(=O)n1C1CC1)c1cccs1 | 0.685 | > 50 | 10.3 | 9.9 | inhibition [8]: inactive; inhibition [6]: inactive
14 | O=C(CNc1nc2sccc2c(=O)n1C1CC1)c1ccccc1 | > 20 | > 50 |  |  | 
15 | O=C(CSc1nc2sc3c(c2c(=O)n1-c1ccccc1)CCCC3)c1cccs1 | 8.25 | > 50 |  |  | 
16 | C=C(C)Cn1c(SCC(=O)N2CCCCC2)nc2sc3c(c2c1=O)CCCC3 | 10.7 | 24.6 |  |  | 
17 | C=C(C)Cn1c(SCC(=O)N2CCOCC2)nc2sc3c(c2c1=O)CCCC3 | > 20 | > 50 |  |  | 

Row | SMILES | EC50 ([1]; read-out: EC50) [µM] | CC50 at 48 h [2] [µM] | inhibition [4] [%] | inhibition [5] [%] | also measured
18 | CN(C)c1ccccc1CN1CCCN(Cc2ccccc2N(C)C)C1c1ccncc1 | 9.27 | > 50 | 43.8 | 52.8 | EC50 [10]: 5 µM
19 | C=C(C)Cn1c(SCC(=O)N2CCCCC2C)nc2sc3c(c2c1=O)CCCC3 (configuration not stated) | 2.32 | 16.7 | 35 | 49.2 | 
20 | C=C(C)Cn1c(SCC(=O)c2cccs2)nc2sc3c(c2c1=O)CCSC3 | 4.57 | > 50 |  |  | 
21 | C=C(C)Cn1c(SCC(=O)c2cccs2)nc2ccccc2c1=O | > 20 | > 50 |  |  | 
22 | C=C(C)Cn1c(SCC(=O)c2cccs2)nc2sc3ccccc3c2c1=O | > 20 | > 50 |  |  | 
23 | C=C(C)Cn1c(SCC(=O)c2ccccn2)nc2sc3c(c2c1=O)CCCC3 | > 20 | > 50 |  |  | 
24 | O=C(CSc1nc2sc3c(c2c(=O)n1C1CC1)CCCC3)c1cccs1 | 1.89 | > 50 | 26.8 | 26.5 | 
25 | O=C(COc1nc2sccc2c(=O)n1C1CC1)c1ccccc1 | > 20 | > 50 |  |  | 
26 | C=C(C)Cn1c(SCC(=O)c2cccs2)nc2sc3c(c2c1=O)CCOC3 | > 20 | > 50 |  |  | 
27 | CCCn1c(SCC(=O)c2cccs2)nc2sc3c(c2c1=O)CCCC3 | 1.3 | > 50 | 44.9 | 39.9 | IC50 [9]: 0.486 µM
28 | Cc1c(C(=O)Nc2ccc(N3C[C@@H](C)O[C@@H](C)C3)nc2)cccc1-c1ccc(OC(F)(F)F)cc1 [SONIDEGIB] | 0.0012 | > 50 |  |  | inhibition [11]: 5.8%; inhibition [12]: -0.2%
29 | C=C(C)Cn1c(SCC(=O)c2cccs2)nc2sc3c(c2c1=O)CCNC3 | 6.4 | 20.1 |  |  | 
30 | C=C(C)Cn1c(SCC(=O)c2cccs2)nc2sc3c(c2c1=O)CCCC3 | 1.34 | > 50 | 46.5 | 32.2 | EC50 ([1]; read-out: pEC50 (converted)): < 1 µM; IC50 [9]: 0.38 µM; inhibition [8]: inactive; inhibition [6]: inactive
31 | O=C(CSc1nc2sc3c(c2c(=O)n1CC1CCC1)CCCC3)c1cccs1 | 1.99 | 45.6 |  |  | 
32 | O=c1c2ccsc2nc(SCC(O)c2ccccc2)n1C1CC1 (configuration not stated) |  | > 50 | 3.2 | -4.8 | IC50 [9]: 6.07 µM; inhibition [8]: inactive; inhibition [6]: inactive
33 | C=CCn1c(SCC(=O)c2cccs2)nc2sc3c(c2c1=O)CCCC3 | 2.36 | > 50 |  |  | 

— ChEMBL document CHEMBL3784940 (Bioorg Med Chem Lett, 2016)
